According to PubChem BioAssay AID1963840 (Molecular Pharmacology Branch, DTP, NCI, 2024):
Values joined by “and” are separate entries in the source; they are usually repeats but may differ in a detail not shown here. Equal values may be shown once.

Test system: 695427-040-R-J1-PDC complex spheroid viability
Experiment: Anticancer human tumor 695427-040-R-J1-PDC patient-derived colon adenocarcinoma cell line growth inhibition [POLQ]
Details: for viability, T/C: stronger effect = lower value
Description: Multicellular complex tumor spheroid response to Polymerase (POL) inhibitors (novobiocin, ART-558, RP6685) in combination with a variety of drugs and investigational agents in selected tumor cell lines
The POL inhibitors (novobiocin, ART-558, and RP6685) were evaluated both individually and in combination with standard of care and investigational anticancer small molecules within a complex spheroid model of solid tumors. . Complex spheroids include a stromal component modeled by human endothelial cells (HUVEC) and fibroblasts modeled by human mesenchymal stem cells (MSCs). The concentration ranges selected for each drug and investigational agent were based upon clinically achievable concentrations if the clinical Cmax of the agent was known.
Compounds. The drugs and investigational agents: novobiocin (NSC847541), ART-558 (NSC835418), RP-6685 (NSC848927), peposertib (NSC802822), ceralasertib (NSC780249), elimusertib (NSC800525), camonsertib (NSC841442), AZD-1390 (NSC803789), olaparib (NSC753686), talazoparib (NSC767125), rucaparib (NSC756644), sotorasib (NSC818433), MRTX-1133 (NSC836407), SN-38 (NSC673596), topotecan (NSC609699), epotoside (NSC141540), doxorubicin (NSC123127), gemcitabine (NSC613327), 5-fluorouracil (NSC19893), paclitaxel (NSC125973), vemurafenib (NSC761431), MSA-2 (NSC828583), SN-011 (NSC837082), adavosertib (NSC754352), prexasertib (NSC758257), carboplatin (NSC241240) and oxaliplatin (NSC266046), were obtained from the National Cancer Institute (NCI) Developmental Therapeutics Program Chemical Repository (21). The FDA-approved anticancer drug set is available from the Developmental Therapeutics Program at https://dtp.cancer.gov/organization/dscb/obtaining/. […] The stock solutions were prepared in dimethyl sulfoxide (DMSO, Sigma-Aldrich, St. Louis, MO, cat. D2650), except for the platinum compounds which were prepared in saline (Quality Biological, Gaithersburg, MD, cat. 114-055-101), at 800-fold the tested concentration and stored at -70 degrees C prior to their use. All drugs and investigational agents were tested over a range starting from a high concentration at or near the clinical Cmax and decreasing in half-log increments. If the clinical Cmax for an agent had not been determined, the highest concentration tested was 10 microM, except for SN-38, which was tested at a high concentration of 1 microM.
Cell Culture. All cells were maintained in an incubator at 37 degrees C and 5% CO2 with 95% humidity. The PDC lines were cultured according to standard operating procedures established by the NCI PDMR (https://pdmr.cancer.gov). Table 3 of the manuscript, lists the cell lines along with the number of the three cell types plated to form the mct-spheroids and media for tumor cell growth. After thawing, all PDC lines, except 997537-175-T-J1-PDC and 415267-285-R-J2-PDC, were cultured in Matrigel-coated flasks prepared with a working solution of 1X Ham's F-12 nutrient mix, without supplementation (Thermo Fisher Scientific, cat. 11765054), 100 U/mL penicillin-streptomycin (Thermo Fisher Scientific, cat. 15140122), and 2.5% Matrigel (Corning Inc., Corning, NY, cat. 354248) for the first three passages. The two PDC lines 997537-175-T-J1-PDC and 415267-285-R-J2-PDC were cultured on uncoated flasks. The 857933-349-R-J2-PDC line was cultured in 6C/Colon 1B media containing advanced DMEM/F-12 (Thermo Fisher Scientific, cat. 12634028), 10 mM HEPES (Thermo Fisher Scientific, cat. 15630080), 1X GlutaMAX supplement (Thermo Fisher Scientific, cat. 35050061), 0.1 mg/mL primocin (InvivoGen, San Diego, CA, cat. ant-pm-2), 10% defined fetal bovine serum, heat inactivated (HyClone Laboratories Inc., Logan, UT, cat. SH30070.03HI), 50% L-WRN conditioned media (ATCC, cat. CRL-3276), 1.25 mM N-Acetyl-L-cysteine (Sigma-Aldrich, cat. A9165), 10 mM nicotinamide (Sigma-Aldrich, cat. N0636), 1X B-27 supplement (Thermo Fisher Scientific, cat. 17504044), 1X N-2 supplement (Thermo Fisher Scientific, cat. […]
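Also: spheroids exposed to compounds for seven days.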
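For viability, T/C in this document: 100% = DMSO vehicle control viability.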

**Q.** `COc1cccc(OCCCN)c1-c1cc(Nc2cnc(C#N)cn2)n[nH]1` was tested. Which viability, T/C (compound 0.00316 µM) did it give?
**A.** 94.2% and 94.8% and 102%

**Q.** What about the viability, T/C (compound 0.01 µM) of the same compound?
**A.** 84.4% and 93.3% and 91.1%

**Q.** And the viability, T/C (compound 0.0316 µM)?
**A.** 80.9% and 87.1% and 92.6%

**Q.** What about the viability, T/C (compound 0.1 µM) of the same compound?
**A.** 76% and 75.7% and 85.2%

**Q.** And the viability, T/C (compound 0.316 µM)?
**A.** 53.1% and 74.3% and 72.6%

**Q.** And the viability, T/C (compound 1 µM)?
**A.** 37.3% and 50.5% and 55.4%

**Q.** What about the IC50 (curve of compound) of the same compound?
**A.** 448 nM and > 1000 nM

**Q.** How did the IC50 (curve of first compound, second compound 0.0316 µM) turn out when `COc1cccc(OCCCN)c1-c1cc(Nc2cnc(C#N)cn2)n[nH]1` + COC1C(OC(N)=O)C(O)C(Oc2ccc3c(O)c(NC(=O)c4ccc(O)c(CC=C(C)C)c4)c(=O)oc3c2C)OC1(C)C was run?
**A.** 386 nM

**Q.** And the IC50 (curve of first compound, second compound 0.1 µM)?
**A.** 535 nM

**Q.** What about the IC50 (curve of first compound, second compound 0.316 µM) of the same compound?
**A.** 460 nM

**Q.** What about the IC50 (curve of first compound, second compound 1 µM) of the same compound?
**A.** 391 nM

**Q.** And the IC50 (curve of first compound, second compound 3.16 µM)?
**A.** 449 nM

**Q.** What about the IC50 (curve of first compound, second compound 10 µM) of the same compound?
**A.** 465 nM

**Q.** What about the viability, T/C (second compound 0.0316 µM, first compound 0.00316 µM) of the same compound?
**A.** 103%

**Q.** And the viability, T/C (second compound 0.0316 µM, first compound 0.01 µM)?
**A.** 94.2%

**Q.** And the viability, T/C (second compound 0.0316 µM, first compound 0.0316 µM)?
**A.** 81.1%

**Q.** What about the viability, T/C (second compound 0.0316 µM, first compound 0.1 µM) of the same compound?
**A.** 70.2%

**Q.** What about the viability, T/C (second compound 0.0316 µM, first compound 0.316 µM) of the same compound?
**A.** 50.3%

**Q.** What about the viability, T/C (second compound 0.0316 µM, first compound 1 µM) of the same compound?
**A.** 39.7%

**Q.** And the viability, T/C (second compound 0.1 µM, first compound 0.00316 µM)?
**A.** 109%

**Q.** What about the viability, T/C (second compound 0.1 µM, first compound 0.01 µM) of the same compound?
**A.** 84.2%

**Q.** And the viability, T/C (second compound 0.1 µM, first compound 0.0316 µM)?
**A.** 81%

**Q.** What about the viability, T/C (second compound 0.1 µM, first compound 0.1 µM) of the same compound?
**A.** 69.7%

**Q.** And the viability, T/C (second compound 0.1 µM, first compound 0.316 µM)?
**A.** 56%

**Q.** And the viability, T/C (second compound 0.1 µM, first compound 1 µM)?
**A.** 42.2%

**Q.** And the viability, T/C (second compound 0.316 µM, first compound 0.00316 µM)?
**A.** 101%

**Q.** And the viability, T/C (second compound 0.316 µM, first compound 0.01 µM)?
**A.** 93%

**Q.** And the viability, T/C (second compound 0.316 µM, first compound 0.0316 µM)?
**A.** 85%

**Q.** What about the viability, T/C (second compound 0.316 µM, first compound 0.1 µM) of the same compound?
**A.** 73.1%

**Q.** And the viability, T/C (second compound 0.316 µM, first compound 0.316 µM)?
**A.** 54%

**Q.** And the viability, T/C (second compound 0.316 µM, first compound 1 µM)?
**A.** 39.2%

**Q.** And the viability, T/C (second compound 1 µM, first compound 0.00316 µM)?
**A.** 102%

**Q.** What about the viability, T/C (second compound 1 µM, first compound 0.01 µM) of the same compound?
**A.** 93.7%

**Q.** What about the viability, T/C (second compound 1 µM, first compound 0.0316 µM) of the same compound?
**A.** 83.7%

**Q.** And the viability, T/C (second compound 1 µM, first compound 0.1 µM)?
**A.** 66.3%

**Q.** And the viability, T/C (second compound 1 µM, first compound 0.316 µM)?
**A.** 53.9%

**Q.** And the viability, T/C (second compound 1 µM, first compound 1 µM)?
**A.** 38.1%

**Q.** And the viability, T/C (second compound 3.16 µM, first compound 0.00316 µM)?
**A.** 107%

**Q.** And the viability, T/C (second compound 3.16 µM, first compound 0.01 µM)?
**A.** 95.1%

**Q.** And the viability, T/C (second compound 3.16 µM, first compound 0.0316 µM)?
**A.** 86.3%

**Q.** What about the viability, T/C (second compound 3.16 µM, first compound 0.1 µM) of the same compound?
**A.** 67.2%

**Q.** What about the viability, T/C (second compound 3.16 µM, first compound 0.316 µM) of the same compound?
**A.** 56.3%

**Q.** And the viability, T/C (second compound 3.16 µM, first compound 1 µM)?
**A.** 38.7%

**Q.** And the viability, T/C (second compound 10 µM, first compound 0.00316 µM)?
**A.** 100%

**Q.** What about the viability, T/C (second compound 10 µM, first compound 0.01 µM) of the same compound?
**A.** 84.9%

**Q.** What about the viability, T/C (second compound 10 µM, first compound 0.0316 µM) of the same compound?
**A.** 81.1%

**Q.** And the viability, T/C (second compound 10 µM, first compound 0.1 µM)?
**A.** 68.9%

**Q.** What about the viability, T/C (second compound 10 µM, first compound 0.316 µM) of the same compound?
**A.** 55.2%

**Q.** What about the viability, T/C (second compound 10 µM, first compound 1 µM) of the same compound?
**A.** 39.8%

**Q.** Which results are given for `CC[C@@]1(O)C(=O)OCc2c1cc1n(c2=O)Cc2cc3c(CN(C)C)c(O)ccc3nc2-1`?
**A.** viability, T/C (compound 0.000316 µM): 94.3% and 106% and 102%; viability, T/C (compound 0.001 µM): 105% and 101% and 103%; viability, T/C (compound 0.00316 µM): 102%; viability, T/C (compound 0.01 µM): 96.3% and 98.2% and 106%; viability, T/C (compound 0.0316 µM): 101% and 113% and 103%; viability, T/C (compound 0.1 µM): 94.8% and 111% and 89.7%; IC50 (curve of compound): > 100 nM

**Q.** For `CCCS(=O)(=O)Nc1ccc(F)c(C(=O)c2c[nH]c3ncc(-c4ccc(Cl)cc4)cc23)c1F`, which viability, T/C (compound 0.0316 µM) is on record?
**A.** 106% and 102% and 97.1%

**Q.** And the viability, T/C (compound 0.1 µM)?
**A.** 94.9% and 109% and 95.8%

**Q.** What about the viability, T/C (compound 0.316 µM) of the same compound?
**A.** 95.9% and 109% and 96.2%

**Q.** And the viability, T/C (compound 1 µM)?
**A.** 108% and 103% and 104%

**Q.** What about the viability, T/C (compound 3.16 µM) of the same compound?
**A.** 110% and 103% and 109%

**Q.** What about the viability, T/C (compound 10 µM) of the same compound?
**A.** 87.5% and 88.3% and 86%

**Q.** And the IC50 (curve of compound)?
**A.** > 10000 nM
